# Experimental data taken from US20100076489A1, “WOUND CLOSURE MATERIAL” (priority 2007, published 2010).
# Assay: Saturation concentration of paclitaxel in various release media (HPLC)
# Format: physicochemical
# Procedure: Paclitaxel concentrations were then measured with a Waters 2965 series HPLC (commercially available from Waters Corporation). A 20 μL from each sample was injected into a Phenomenex ODS-2 INERTSIL (5.0 μm, 150 mm×4.6, from Phenomenex) which was maintained at about 30° C. The sample runs were conducted for about 10 minutes, with a flow rate at 0.8 mL/minute. The mobile phase included about 55% acetonitrile and 45% water (v/v). The paclitaxel was detected at a wavelength of about 230 nm with a photodiode array detector (Waters series 2996, commercially available from Waters Corporation).
# A release medium, including phosphate buffered saline (PBS) with about 0.1% of a polyethoxylated fatty acid ester of sorbitan (also referred to as polysorbates, commercially available as TWEEN™ 80) (w/v) and about 0.5% sodium dodecylsulfate (SDS) (w/v) was prepared as follows. About 100 mL of 10×PBS concentrate was added to a 1 liter volumetric flask. The flask was filled to the line with Milli-Q water and stirred for about 15 minutes. To the solution, about 1 mL of TWEEN™ 80 was added and stirred with a magnetic stir bar until the TWEEN™ 80 was completely dissolved. Approximately 5 grams of sodium dodecylsulfate was then added and the solution was stirred for about 45 minutes. The pH of the solution was tested and found to be about 7.3.
# The saturation concentration of paclitaxel in various release media was determined using the previously mentioned high pressure liquid chromatography method. In addition to the release media including PBS with about 0.1% TWEEN™ 80 and 0.5% Sodium Dodecyl Sulfate described above, other media were similarly tested. The additional media included PBS with about 0.1% by weight PLURAFAC® surfactant (commercially available from BASF), PBS with about 0.1% by weight TWEEN™ 80, and PBS with about 0.8% by weight Dimethyl-b-Cyclodextrin. A summary of the results is provided below in Table 1.
smiles,measurement,setting,value
"CC(=O)O[C@H]1C(=O)[C@@]2(C)[C@H]([C@H](OC(=O)c3ccccc3)[C@]3(O)C[C@H](OC(=O)[C@H](O)[C@@H](NC(=O)c4ccccc4)c4ccccc4)C(C)=C1C3(C)C)[C@]1(OC(C)=O)CO[C@@H]1C[C@@H]2O [Paclitaxel, paclitaxel]",Saturation concentration of Paclitaxel,Media: PBS w/0.1% Plurafac,0.1 ± .01 µg/mL
same,Saturation concentration of Paclitaxel,Media: PBS w/0.1% TWEEN 80,2.2 ± 0.2 µg/mL
same,Saturation concentration of Paclitaxel,Media: PBS w/0.1% TWEEN 80 and 0.5% Sodium Dodecyl Sulfate,52.8 ± 6.4 µg/mL
same,Saturation concentration of Paclitaxel,Media: PBS w/0.8% Dimethyl-b-Cyclodextrin,7.3 µg/mL
